Like-named read-outs stand apart in the source and are kept apart here. Blank lines part the entries; values can stand above or below the compound they belong to.
How the values were obtained:
HD-MB03 cells [1] = system: HD-MB03 cells
[2] = system: G3MB and SHHMB tumor cells; test: Single agent drug screen, statements over the panel of MB models; format: cell-based, human; conditions: most potent compounds over the MB models
[3] = system: SJMBSHH-13-5634 intracranial PDX
HD-MB03 cells [4] = test: cells; format: cell-based, human
[5] = Toxicity measurement in tumor bearing mice; format: in vivo, mouse
[6] = system: MYC, CYCLIN E, p27KIP1 expression in HD-MB03 cells; test: Immunoblotting; format: cell-based, human; conditions: HD-MB03, 72h, 5μM ribociclib, 0.3μM JQ1, 0.5μM paxalisib
[7] = system: HD-MB03 intracranial xenograft; test: Pre-clinical trial, survival of intracranial tumor bearing mice; format: in vivo, mouse
[8] = system: MB002 intracranial xenograft; test: as above; format: in vivo, mouse; conditions: 10 mg/kg
[9] = adult patients, once a day dosing; cited from earlier work
HD-MB03 cells [10] = conditions: HD-MB03, 1h exposure

EC50 fold improvement (IC50 fold change of drug partner) (HD-MB03 cells [1]): 30.5 fold
Structure (SMILES): CC(=O)c1c(C)c2cnc(Nc3ccc(N4CCNCC4)cn3)nc2n(C2CCCC2)c1=O [palbociclib]

EC50 fold improvement (IC50 fold change of drug partner) (HD-MB03 cells [1]): 12.8 fold
Structure (SMILES): CCN1CCN(Cc2ccc(Nc3ncc(F)c(-c4cc(F)c5nc(C)n(C(C)C)c5c4)n3)nc2)CC1 [abemaciclib]

IC50 (in words) [2]: picomolar to low nanomolar range
Structure (SMILES): CON(C)C(=O)N1N=C(c2cc(F)ccc2F)S[C@@]1(CCCN)c1ccccc1 [ARRY-520 /filanesib, filanesib]

IC50 (in words) [2]: picomolar to low nanomolar range
Structure (SMILES): CCc1c2c(nc3ccc(O)cc13)-c1cc3c(c(=O)n1C2)COC(=O)[C@]3(O)CC [SN-38]

The next lines start with the compound.

Structure (SMILES): Cc1csc(-c2nnc(Nc3ccc(Oc4ncccc4-c4ccnc(N)n4)cc3)c3ccccc23)c1 [AMG-900]
IC50 (in words) [2]: picomolar to low nanomolar range

Structure (SMILES): CN(C)C(=O)c1cc2cnc(Nc3ccc(N4CCNCC4)cn3)nc2n1C1CCCC1 [ribociclib]
Median survival ([3]; 100 mg/kg): 71.5 days
IC20 (HD-MB03 cells [4]; Homo sapiens, HD-MB03): 5000 nM
EC50 fold improvement (IC50 fold change of drug partner) (HD-MB03 cells [1]; Fig. 2D, 0.132μM JQ1 anchor, HD-MB03): 7.8 fold
complete blood counts (in words) ([5]; MB002-bearing mice, ribociclib 100mg/kg, JQ1 50mg/kg daily): mild leukopenia
MYC, CYCLIN E, p27KIP1 protein expression [6]: increased expression of MYC and CYCLIN E proteins
Median survival ([7]; 100 mg/kg): 25 days

Structure (SMILES): Cc1nc(Nc2n[nH]c3c2CN(C(=O)N[C@H](CN(C)C)c2ccccc2)C3(C)C)c2sccc2n1 [PF-03758309]
IC50 (in words) [2]: picomolar to low nanomolar range

Structure (SMILES): CC1(C)OCCn2c1nc1c(N3CCOCC3)nc(-c3cnc(N)nc3)nc12 [paxalisib]
Median survival ([3]; 10 mg/kg): 46 days
Median survival [8]: 33.5 days
body weight and body condition ([5]; MB bearing mice, paxalisib 10mg/kg alone or with ribociclib 100mg/kg): severe weight loss and had poor body condition
Median survival ([7]; 10 mg/kg): 27 days
maximum tolerated dose [9]: 45 mg/day

Structure (SMILES): Cc1sc2c(c1C)C(c1ccc(Cl)cc1)=N[C@@H](CC(=O)OC(C)(C)C)c1nnc(C)n1-2 [JQ1]
IC50 (HD-MB03 cells [10]): > 2000 nM
IC20 (HD-MB03 cells [4]; HD-MB03, anchor concentration): 132 nM

From paper PMC9808370 (Molecular cancer therapeutics, 2023)
